From ChEMBL document CHEMBL1201862, “PubChem BioAssay data set” (2004)
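A five-concentration, 48-hour dose response in 96-well plates underlies each endpoint, interpolated linearly between surrounding concentrations. At the GI50, growth is halved.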 Calls of active or inactive are those of the source. No stated cut-off is given here; in the data, active = GI50 up to about 1.1 µM and inactive = higher.

Key:
Test in all cases: NCI anticancer screen, dose series, 48 h
DU-145 = system: DU-145
MOLT-4 = system: MOLT-4
T47D = system: T47D
SNB-75 = system: SNB-75
SF-539 = system: SF-539
A498 = system: A498
MDA-N = system: MDA-N
SK-MEL-5 = system: SK-MEL-5
HOP-62 = system: HOP-62
SR = system: SR
NCI/ADR-RES = system: NCI/ADR-RES
MDA-MB-231 = system: MDA-MB-231
CAKI-1 = system: CAKI-1
RPMI-8226 = system: RPMI-8226
HL-60 = system: HL-60
NCI-H226 = system: NCI-H226
BT-549 = system: BT-549
HT-29 = system: HT-29
RXF 393 = system: RXF 393
SK-OV-3 = system: SK-OV-3
Hs-578T = system: Hs-578T
TK-10 = system: TK-10
ACHN = system: ACHN
SNB-19 = system: SNB-19
SN12C = system: SN12C
CCRF-CEM = system: CCRF-CEM
SK-MEL-28 = system: SK-MEL-28
HCT-15 = system: HCT-15
SF-295 = system: SF-295
OVCAR-8 = system: OVCAR-8
OVCAR-5 = system: OVCAR-5
NCI-H23 = system: NCI-H23
MCF7 = system: MCF7
NCI-H460 = system: NCI-H460
OVCAR-4 = system: OVCAR-4
UO-31 = system: UO-31
SK-MEL-2 = system: SK-MEL-2
COLO 205 = system: COLO 205
LOX IMVI = system: LOX IMVI
EKVX = system: EKVX
HOP-92 = system: HOP-92
UACC-62 = system: UACC-62
OVCAR-3 = system: OVCAR-3
HCT-116 = system: HCT-116
A549 = system: A549
M14 = system: M14
PC-3 = system: PC-3
UACC-257 = system: UACC-257
KM12 = system: KM12
SF-268 = system: SF-268
SW-620 = system: SW-620
IGROV-1 = system: IGROV-1
NCI-H522 = system: NCI-H522
Malme-3M = system: Malme-3M
786-0 = system: 786-0
U-251 = system: U-251
K562 = system: K562
MDA-MB-435 = system: MDA-MB-435
HCC 2998 = system: HCC 2998
DLD-1 = system: DLD-1
LXFL 529 = system: LXFL 529
DMS-273 = system: DMS-273
KM-20L2 = system: KM-20L2
SNB-78 = system: SNB-78
DMS-114 = system: DMS-114

Compound: CC(=O)O[C@H]1CC[C@H]2[C@@H]3CCC4C(C)=NNC(=O)C4[C@H]3CC[C@]12C (some centres undefined)
- GI50 (DU-145): > 75.5 µM (inactive)
- GI50 (MOLT-4): > 100 µM (inactive)
- GI50 (T47D): > 100 µM (inactive)
- GI50 (SNB-75): 14.2 µM (inactive)
- GI50 (SF-539): 65.9 µM (inactive)
- GI50 (A498): 37.2 µM (inactive)
- GI50 (MDA-N): > 100 µM (inactive)
- GI50 (SK-MEL-5): > 100 µM (inactive)
- GI50 (HOP-62): 19.8 µM (inactive)
- GI50 (SR): > 100 µM (inactive)
- GI50 (NCI/ADR-RES): 45.4 µM (inactive)
- GI50 (MDA-MB-231): 33.3 µM (inactive)
- GI50 (CAKI-1): > 90.2 µM (inactive)
- GI50 (RPMI-8226): > 100 µM (inactive)
- GI50 (HL-60): > 100 µM (inactive)
- GI50 (NCI-H226): 39.5 µM (inactive)
- GI50 (BT-549): > 45.3 µM (inactive)
- GI50 (HT-29): > 100 µM (inactive)
- GI50 (RXF 393): 56.6 µM (inactive)
- GI50 (SK-OV-3): > 95.1 µM (inactive)
- GI50 (Hs-578T): 17.8 µM (inactive)
- GI50 (TK-10): > 76.6 µM (inactive)
- GI50 (ACHN): 57.5 µM (inactive)
- GI50 (SNB-19): 33.5 µM (inactive)
- GI50 (SN12C): 95.5 µM (inactive)
- GI50 (CCRF-CEM): > 100 µM (inactive)
- GI50 (SK-MEL-28): > 100 µM (inactive)
- GI50 (HCT-15): > 100 µM
- GI50 (SF-295): 41.5 µM (inactive)
- GI50 (OVCAR-8): 38 µM (inactive)
- GI50 (OVCAR-5): > 100 µM (inactive)
- GI50 (NCI-H23): > 60.7 µM (inactive)
- GI50 (MCF7): > 100 µM (inactive)
- GI50 (NCI-H460): > 100 µM (inactive)
- GI50 (OVCAR-4): > 100 µM (inactive)
- GI50 (UO-31): > 100 µM (inactive)
- GI50 (SK-MEL-2): > 75.2 µM (inactive)
- GI50 (COLO 205): > 100 µM (inactive)
- GI50 (LOX IMVI): > 38.6 µM (inactive)
- GI50 (EKVX): 48.9 µM (inactive)
- GI50 (HOP-92): 37.9 µM (inactive)
- GI50 (UACC-62): > 100 µM (inactive)
- GI50 (OVCAR-3): > 100 µM (inactive)
- GI50 (HCT-116): > 73.5 µM (inactive)
- GI50 (A549): > 100 µM (inactive)
- GI50 (M14): > 100 µM (inactive)
- GI50 (PC-3): > 100 µM (inactive)
- GI50 (UACC-257): > 100 µM (inactive)
- GI50 (KM12): > 100 µM (inactive)
- GI50 (SF-268): 34 µM (inactive)
- GI50 (SW-620): > 100 µM (inactive)
- GI50 (IGROV-1): 27 µM (inactive)
- GI50 (NCI-H522): 34 µM (inactive)
- GI50 (Malme-3M): 99.8 µM (inactive)
- GI50 (786-0): 40.3 µM (inactive)
- GI50 (U-251): 36.5 µM (inactive)
- GI50 (K562): > 100 µM (inactive)
- GI50 (MDA-MB-435): > 100 µM (inactive)
- GI50 (HCC 2998): > 100 µM (inactive)

Compound: Cc1nc(C(=O)O)c2ccccc2n1
- GI50 (DLD-1): > 100 µM (inactive)
- GI50 (MOLT-4): > 100 µM (inactive)
- GI50 (LXFL 529): > 100 µM (inactive)
- GI50 (DMS-273): > 100 µM (inactive)
- GI50 (SNB-75): > 100 µM (inactive)
- GI50 (SF-539): > 100 µM (inactive)
- GI50 (A498): > 100 µM (inactive)
- GI50 (SK-MEL-5): > 100 µM (inactive)
- GI50 (SR): > 100 µM (inactive)
- GI50 (CAKI-1): > 100 µM (inactive)
- GI50 (RPMI-8226): > 100 µM (inactive)
- GI50 (HL-60): > 100 µM (inactive)
- GI50 (HT-29): > 100 µM (inactive)
- GI50 (RXF 393): > 100 µM (inactive)
- GI50 (SK-OV-3): > 100 µM (inactive)
- GI50 (TK-10): > 100 µM (inactive)
- GI50 (ACHN): > 100 µM (inactive)
- GI50 (SNB-19): > 100 µM (inactive)
- GI50 (SN12C): > 100 µM (inactive)
- GI50 (CCRF-CEM): > 100 µM (inactive)
- GI50 (SK-MEL-28): > 100 µM (inactive)
- GI50 (SF-295): > 100 µM (inactive)
- GI50 (OVCAR-8): > 100 µM (inactive)
- GI50 (OVCAR-5): > 100 µM (inactive)
- GI50 (NCI-H23): > 100 µM (inactive)
- GI50 (KM-20L2): > 100 µM (inactive)
- GI50 (NCI-H460): > 100 µM (inactive)
- GI50 (UO-31): > 100 µM (inactive)
- GI50 (SK-MEL-2): > 100 µM (inactive)
- GI50 (COLO 205): > 100 µM (inactive)
- GI50 (HOP-92): > 100 µM (inactive)
- GI50 (UACC-62): > 100 µM (inactive)
- GI50 (OVCAR-3): > 100 µM (inactive)
- GI50 (HCT-116): > 100 µM (inactive)
- GI50 (A549): > 100 µM (inactive)
- GI50 (UACC-257): > 100 µM (inactive)
- GI50 (SNB-78): > 100 µM (inactive)
- GI50 (KM12): > 100 µM (inactive)
- GI50 (SF-268): > 100 µM (inactive)
- GI50 (SW-620): > 100 µM (inactive)
- GI50 (DMS-114): > 100 µM (inactive)
- GI50 (IGROV-1): > 100 µM (inactive)
- GI50 (Malme-3M): > 100 µM (inactive)
- GI50 (786-0): > 100 µM (inactive)
- GI50 (U-251): > 100 µM (inactive)
- GI50 (K562): > 100 µM (inactive)
- GI50 (HCC 2998): > 100 µM (inactive)

Compound: Cc1c(-c2ccccc2)c(C#N)c2nnn(C)c(=O)n12
- GI50 (DU-145): > 100 µM (inactive)
- GI50 (T47D): > 100 µM (inactive)
- GI50 (SNB-75): 42.8 µM (inactive)
- GI50 (SF-539): > 100 µM (inactive)
- GI50 (A498): 91.6 µM (inactive)
- GI50 (MDA-N): > 100 µM (inactive)
- GI50 (SK-MEL-5): > 100 µM (inactive)
- GI50 (HOP-62): 44 µM (inactive)
- GI50 (SR): 65.6 µM (inactive)
- GI50 (NCI/ADR-RES): > 100 µM (inactive)
- GI50 (MDA-MB-231): > 100 µM (inactive)
- GI50 (CAKI-1): > 100 µM (inactive)
- GI50 (RPMI-8226): > 100 µM (inactive)
- GI50 (HL-60): > 100 µM (inactive)
- GI50 (NCI-H226): > 100 µM (inactive)
- GI50 (BT-549): > 100 µM (inactive)
- GI50 (HT-29): > 100 µM (inactive)
- GI50 (RXF 393): 57.1 µM (inactive)
- GI50 (SK-OV-3): 96.2 µM (inactive)
- GI50 (Hs-578T): > 100 µM (inactive)
- GI50 (TK-10): > 100 µM (inactive)
- GI50 (ACHN): > 100 µM (inactive)
- GI50 (SNB-19): > 100 µM (inactive)
- GI50 (SN12C): > 100 µM (inactive)
- GI50 (CCRF-CEM): > 100 µM (inactive)
- GI50 (SK-MEL-28): > 100 µM (inactive)
- GI50 (HCT-15): > 100 µM
- GI50 (SF-295): 68.9 µM (inactive)
- GI50 (OVCAR-8): > 100 µM (inactive)
- GI50 (OVCAR-5): > 100 µM (inactive)
- GI50 (NCI-H23): > 100 µM (inactive)
- GI50 (MCF7): > 100 µM (inactive)
- GI50 (NCI-H460): > 100 µM (inactive)
- GI50 (OVCAR-4): > 100 µM (inactive)
- GI50 (UO-31): > 100 µM (inactive)
- GI50 (SK-MEL-2): > 100 µM (inactive)
- GI50 (COLO 205): > 100 µM (inactive)
- GI50 (LOX IMVI): > 100 µM (inactive)
- GI50 (EKVX): > 100 µM (inactive)
- GI50 (HOP-92): > 100 µM (inactive)
- GI50 (UACC-62): > 100 µM (inactive)
- GI50 (OVCAR-3): > 100 µM (inactive)
- GI50 (HCT-116): > 100 µM (inactive)
- GI50 (A549): > 100 µM (inactive)
- GI50 (M14): > 100 µM (inactive)
- GI50 (PC-3): 64.3 µM (inactive)
- GI50 (UACC-257): > 100 µM (inactive)
- GI50 (KM12): > 100 µM (inactive)
- GI50 (SF-268): > 100 µM (inactive)
- GI50 (SW-620): > 100 µM (inactive)
- GI50 (IGROV-1): > 100 µM (inactive)
- GI50 (NCI-H522): > 100 µM (inactive)
- GI50 (Malme-3M): > 100 µM (inactive)
- GI50 (786-0): > 100 µM (inactive)
- GI50 (U-251): > 100 µM (inactive)
- GI50 (K562): > 100 µM (inactive)
- GI50 (MDA-MB-435): > 100 µM (inactive)
- GI50 (HCC 2998): > 100 µM (inactive)
